Laboratory results taken from DBAASP.
Converted amounts (≈) assume the structure as drawn. “And” between values parts separate entries of the source, which are not always exact repeats. Equal values may be shown once. Blank lines part the entries; values can stand above or below the compound they belong to.

How the values were obtained:
Assay in all cases: ≥ marks a high value that may be exact or a test limit, other limits are often not marked, values filed in µg/mL are converted to µM
[1] = test system: Trichophyton mentagrophytes
Aspergillus fumigatus = test system: Aspergillus fumigatus
[2] = test system: Fusarium haematococcum 160.2.2
[3] = test system: Alternaria brassicicola MUCL 20297
[4] = test system: Fusarium oxysporum MUCL 909
[5] = test system: Fusarium culmorum MUCL 30162
[6] = test system: Neurospora crassa CBS 327-54
[7] = test system: Micrococcus luteus ATCC 9341
[8] = test system: Staphylococcus aureus ATCC 6538
[9] = test system: Candida albicans ATCC 36232
[10] = test system: Candida albicans ATCC 3623
[11] = test system: Pseudomonas aeruginosa ATCC 9027
[12] = test system: Escherichia coli ATCC 2592
[13] = test system: Staphylococcus aureus USA 300
Micrococcus luteus = test system: Micrococcus luteus
Escherichia coli 1106 = test system: Escherichia coli 1106
Escherichia coli K-12 = test system: Escherichia coli K-12
Escherichia coli D31 = test system: Escherichia coli D31
Enterococcus faecalis = test system: Enterococcus faecalis
[14] = test system: Pseudomonas aeruginosa ATCC 82118
[15] = test system: Pectobacterium carotovorum subsp. carotovorum
Bacillus megaterium = test system: Bacillus megaterium
[16] = test system: Enterobacter cloacae beta-12
[17] = test system: Xanthomonas campestris pv. oryzae
Staphylococcus aureus = test system: Staphylococcus aureus
Aerococcus viridans = test system: Aerococcus viridans
Bacillus subtilis QB935 = test system: Bacillus subtilis QB935
Bacillus thuringiensis = test system: Bacillus thuringiensis
Escherichia coli D22 = test system: Escherichia coli D22
Burkholderia cepacia = test system: Burkholderia cepacia
Serratia marcescens Db11 = test system: Serratia marcescens Db11
Alcaligenes faecalis = test system: Alcaligenes faecalis
Klebsiella pneumoniae = test system: Klebsiella pneumoniae
Salmonella typhimurium = test system: Salmonella typhimurium
[18] = test system: Staphylococcus aureus P1381
[19] = test system: Staphylococcus epidermidis AB208188
[20] = test system: Staphylococcus aureus AB208193
[21] = test system: Bacillus subtilis AB91021
[22] = test system: Staphylococcus aureus P1389
Escherichia coli AB94012 = test system: Escherichia coli AB94012
[23] = test system: Staphylococcus aureus P1374
[24] = test system: Escherichia coli ATCC 25922
[25] = test system: Micrococcus luteus AB93113
[26] = test system: Bacillus thuringiensis AB92037
[27] = test system: Staphylococcus aureus AB94004
[28] = test system: Staphylococcus aureus ATCC 25923
[29] = test system: Staphylococcus epidermidis AB208187

SMILES: CSCC[C@H](NC(=O)[C@H](CC(N)=O)NC(=O)[C@@H]1CCCN1C(=O)[C@@H]1CCCN1C(=O)[C@H](CCCNC(=N)N)NC(=O)[C@@H]1CCCN1C(=O)[C@H](CCCNC(=N)N)NC(=O)[C@@H]1CCCN1C(=O)[C@H](CCCNC(=N)N)NC(=O)[C@H](Cc1ccc(O)cc1)NC(=O)[C@H](CC(=O)O)NC(=O)[C@@H]1CCCN1C(=O)[C@H](CCCCN)NC(=O)[C@H](CC(=O)O)NC(=O)[C@@H](N)C(C)C)C(=O)O [VDKPDYRPRPRPPNM]
MIC [13]: ≥ 100 µM
MIC (Micrococcus luteus): ≥ 200 µM
MIC (Escherichia coli 1106): ≥ 141 µM
MIC (Escherichia coli K-12): ≥ 100 µM
MIC (Escherichia coli D31): ≥ 141 µM
MIC (Enterococcus faecalis): ≥ 200 µM
MIC [14]: ≥ 200 µM
MIC [15]: ≥ 200 µM
MIC (Bacillus megaterium): ≥ 200 µM
MIC [16]: ≥ 141 µM
MIC [17]: ≥ 141 µM
MIC (Staphylococcus aureus): > 200 µM
MIC (Aerococcus viridans): ≥ 200 µM
MIC (Bacillus subtilis QB935): ≥ 200 µM
MIC (Bacillus thuringiensis): ≥ 200 µM
MIC (Escherichia coli D22): ≥ 70.7 µM
MIC (Burkholderia cepacia): ≥ 100 µM
MIC (Serratia marcescens Db11): ≥ 200 µM
MIC (Alcaligenes faecalis): ≥ 70.7 µM
MIC (Klebsiella pneumoniae): > 200 µM
MIC (Salmonella typhimurium): ≥ 70.7 µM

SMILES: CC[C@H](C)[C@H](NC(=O)[C@H](CCCCN)NC(=O)[C@@H](NC(=O)[C@H](C)NC(=O)[C@H](CC(C)C)NC(=O)[C@H](CCCCN)NC(=O)[C@H](Cc1ccccc1)NC(=O)[C@H](CC(C)C)NC(=O)[C@H](Cc1cnc[nH]1)NC(=O)CNC(=O)[C@H](Cc1ccccc1)NC(=O)[C@@H](N)Cc1ccccc1)[C@@H](C)O)C(=O)N[C@H](C(=O)N1CCC[C@H]1C(=O)N[C@@H](CO)C(=O)N[C@@H](CC(C)C)C(=O)N[C@@H](Cc1ccccc1)C(=O)N[C@@H](CCC(N)=O)C(=O)O)[C@@H](C)CC [FFGHLFKLATKIIPSLFQ]
MIC [18]: 1.5 µM (≈ 3.16 µg/mL)
MIC [19]: 1.5 µM (≈ 3.16 µg/mL)
MIC [20]: 3 µM (≈ 6.32 µg/mL)
MIC [8]: 1.5 µM (≈ 3.16 µg/mL)
MIC [21]: 3 µM (≈ 6.32 µg/mL)
MIC [22]: 3 µM (≈ 6.32 µg/mL)
MIC (Escherichia coli AB94012): 23.7 µM (≈ 49.9 µg/mL)
MIC [23]: 3 µM (≈ 6.32 µg/mL)
MIC [11]: 11.9 µM (≈ 25.1 µg/mL)
MIC [24]: 11.9 µM (≈ 25.1 µg/mL)
MIC [25]: ≥ 47.5 µM
MIC [26]: 3 µM (≈ 6.32 µg/mL)
MIC [27]: 1.5 µM (≈ 3.16 µg/mL)
MIC [28]: 3 µM (≈ 6.32 µg/mL)
MIC [29]: 3 µM (≈ 6.32 µg/mL)

Continued, values first:

MIC [1]: 30 µM (≈ 83.1 µg/mL)
MIC (Aspergillus fumigatus): 30 µM (≈ 83.1 µg/mL)
MIC [2]: 7 µM (≈ 19.4 µg/mL)
MIC [3]: 10 µM (≈ 27.7 µg/mL)
MIC [4]: 30 µM (≈ 83.1 µg/mL)
MIC [5]: 10 µM (≈ 27.7 µg/mL)
MIC [6]: 5 µM (≈ 13.9 µg/mL)
SMILES: CC[C@H](C)[C@H](NC(=O)[C@H](CO)NC(=O)[C@H](CC(C)C)NC(=O)[C@@H](NC(=O)[C@@H](N)CCCN=C(N)N)[C@@H](C)CC)C(=O)N[C@@H](CC(C)C)C(=O)N[C@@H](CCCN=C(N)N)C(=O)N[C@@H](Cc1cnc[nH]1)C(=O)N[C@@H](CCC(N)=O)C(=O)N[C@@H](CC(N)=O)C(=O)N[C@@H](CC(C)C)C(=O)N[C@@H](CC(C)C)C(=O)N[C@@H](CCCCN)C(=O)N[C@@H](CCC(=O)O)C(=O)N[C@@H](CC(C)C)C(=O)N[C@@H](CCC(N)=O)C(=O)N[C@@H](CC(=O)O)C(=O)N[C@@H](CC(C)C)C(=O)N[C@@H](C)C(=O)N[C@@H](CC(C)C)C(=O)N[C@@H](CCC(N)=O)C(=O)NCC(=O)N[C@@H](C)C(=O)N[C@@H](CCCCN)C(=O)O [RILSILRHQNLLKELQDLALQGAK]

MIC [7]: 2.27 µM (≈ 3.13 µg/mL)
MIC [8]: 2.27 µM (≈ 3.13 µg/mL)
MIC [9]: 9.07 µM and 3.21 µM and 4.53 µM
SMILES: CC(C)[C@H](NC(=O)[C@H](CCCCN)NC(=O)[C@H](Cc1ccccc1)NC(=O)[C@@H](NC(=O)[C@@H](NC(=O)[C@H](CCCCN)NC(=O)[C@H](CCCCN)NC(=O)[C@@H](N)CCCCN)C(C)C)C(C)C)C(=O)N[C@@H](CCCCN)C(=O)N[C@@H](Cc1ccccc1)C(=O)N[C@@H](CCCCN)C(N)=O [KKKVVFKVKFK]

MIC [7]: 4.39 µM (≈ 6.3 µg/mL)
MIC [10]: 4.39 µM (≈ 6.3 µg/mL)
MIC [8]: 11.6 µM (≈ 16.7 µg/mL)
MIC [11]: 8.7 µM (≈ 12.5 µg/mL)
MIC [12]: 11.6 µM (≈ 16.7 µg/mL)
SMILES: CC(C)C[C@H](NC(=O)[C@H](CC(C)C)NC(=O)[C@H](CCCCN)NC(=O)[C@H](CC(C)C)NC(=O)[C@H](CC(C)C)NC(=O)[C@H](CC(C)C)NC(=O)[C@H](CCCCN)NC(=O)[C@H](CC(C)C)NC(=O)[C@H](CC(C)C)NC(=O)[C@H](CC(C)C)NC(=O)[C@@H](N)CCCCN)C(=O)N[C@@H](CCCCN)C(N)=O [KLLLKLLLKLLK]
